According to PubChem BioAssay (NCI):
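All cell lines were grown in 96-well plates and treated with compound for 48 hours. The concentration for 50% growth inhibition is given as GI50. TGI: total growth inhibition.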

Columns and labels:
Experiment in all cases: growth of human tumour cells (NCI), 48 h
786-0 renal = system: 786-0 renal
A498 renal = system: A498 renal
A549 NSCLC = system: A549 NSCLC
ACHN renal = system: ACHN renal
BT-549 breast = system: BT-549 breast
CAKI-1 renal = system: CAKI-1 renal
CCRF-CEM leukemia = system: CCRF-CEM leukemia
COLO 205 colon = system: COLO 205 colon
DU-145 prostate = system: DU-145 prostate
EKVX NSCLC = system: EKVX NSCLC
HCC-2998 colon = system: HCC-2998 colon
HCT-15 colon = system: HCT-15 colon
HL-60(TB) leukemia = system: HL-60(TB) leukemia
HOP-62 NSCLC = system: HOP-62 NSCLC
HOP-92 NSCLC = system: HOP-92 NSCLC
HS 578T breast = system: HS 578T breast
HT29 colon = system: HT29 colon
IGROV1 ovarian = system: IGROV1 ovarian
K-562 leukemia = system: K-562 leukemia
KM12 colon = system: KM12 colon
LOX IMVI melanoma = system: LOX IMVI melanoma
MALME-3M melanoma = system: MALME-3M melanoma
MCF7 breast = system: MCF7 breast
MDA-MB-231 breast = system: MDA-MB-231 breast
MDA-MB-435 = system: MDA-MB-435
MOLT-4 leukemia = system: MOLT-4 leukemia
NCI-H226 lung = system: NCI-H226 lung
NCI-H23 lung = system: NCI-H23 lung
NCI-H460 lung = system: NCI-H460 lung
NCI-H522 lung = system: NCI-H522 lung
NCI/ADR-RES ovarian = system: NCI/ADR-RES ovarian
OVCAR-3 ovarian = system: OVCAR-3 ovarian
OVCAR-4 ovarian = system: OVCAR-4 ovarian
OVCAR-5 ovarian = system: OVCAR-5 ovarian
OVCAR-8 ovarian = system: OVCAR-8 ovarian
PC-3 prostate = system: PC-3 prostate
RPMI-8226 leukemia = system: RPMI-8226 leukemia
RXF 393 renal = system: RXF 393 renal
SF-268 CNS = system: SF-268 CNS
SF-295 CNS = system: SF-295 CNS
SF-539 CNS = system: SF-539 CNS
SK-MEL-2 melanoma = system: SK-MEL-2 melanoma
SK-MEL-28 melanoma = system: SK-MEL-28 melanoma
SK-MEL-5 melanoma = system: SK-MEL-5 melanoma
SK-OV-3 ovarian = system: SK-OV-3 ovarian
SN12C renal = system: SN12C renal
SNB-19 CNS = system: SNB-19 CNS
SNB-75 CNS = system: SNB-75 CNS
SR leukemia = system: SR leukemia
SW-620 colon = system: SW-620 colon
T-47D breast = system: T-47D breast
TK-10 renal = system: TK-10 renal
U251 CNS = system: U251 CNS
UACC-257 melanoma = system: UACC-257 melanoma
UACC-62 melanoma = system: UACC-62 melanoma
UO-31 renal = system: UO-31 renal

Structure (SMILES): N#Cc1c(N)nc(N2CCSCC2)c(C#N)c1-c1ccc(O)cc1
- GI50 (786-0 renal): 13.5 µM
- TGI (786-0 renal): 30.4 µM
- GI50 (A498 renal): 13.4 µM
- TGI (A498 renal): 29.8 µM
- GI50 (A549 NSCLC): 30.7 µM
- TGI (A549 NSCLC): > 100 µM
- GI50 (ACHN renal): 18.9 µM
- TGI (ACHN renal): 59 µM
- GI50 (BT-549 breast): 23.3 µM
- TGI (BT-549 breast): 98 µM
- GI50 (CAKI-1 renal): 26.7 µM
- TGI (CAKI-1 renal): > 100 µM
- GI50 (CCRF-CEM leukemia): 26.4 µM
- TGI (CCRF-CEM leukemia): > 100 µM
- GI50 (COLO 205 colon): 19.8 µM
- TGI (COLO 205 colon): 47.1 µM
- GI50 (DU-145 prostate): 27.1 µM
- TGI (DU-145 prostate): > 100 µM
- GI50 (EKVX NSCLC): 27.5 µM
- TGI (EKVX NSCLC): > 100 µM
- GI50 (HCC-2998 colon): 17.2 µM
- TGI (HCC-2998 colon): 36.6 µM
- GI50 (HCT-15 colon): 17.6 µM
- TGI (HCT-15 colon): 54.1 µM
- GI50 (HL-60(TB) leukemia): 17 µM
- TGI (HL-60(TB) leukemia): 53.1 µM
- GI50 (HOP-62 NSCLC): 12.6 µM
- TGI (HOP-62 NSCLC): 28.3 µM
- GI50 (HOP-92 NSCLC): 10.1 µM
- TGI (HOP-92 NSCLC): 47.5 µM
- GI50 (HS 578T breast): 25.1 µM
- TGI (HS 578T breast): > 100 µM
- GI50 (HT29 colon): 16.7 µM
- TGI (HT29 colon): 37.6 µM
- GI50 (IGROV1 ovarian): 32.6 µM
- TGI (IGROV1 ovarian): > 100 µM
- GI50 (K-562 leukemia): 19.8 µM
- TGI (K-562 leukemia): 58.3 µM
- GI50 (KM12 colon): 20.2 µM
- TGI (KM12 colon): 92.2 µM
- GI50 (LOX IMVI melanoma): 15.2 µM
- TGI (LOX IMVI melanoma): 30.3 µM
- GI50 (MALME-3M melanoma): 15.2 µM
- TGI (MALME-3M melanoma): 94.4 µM
- GI50 (MCF7 breast): 14.1 µM
- TGI (MCF7 breast): 40.2 µM
- GI50 (MDA-MB-231 breast): 12.4 µM
- TGI (MDA-MB-231 breast): 27.5 µM
- GI50 (MDA-MB-435): 19 µM
- TGI (MDA-MB-435): 49.6 µM
- GI50 (MOLT-4 leukemia): 11.6 µM
- TGI (MOLT-4 leukemia): 34.5 µM
- GI50 (NCI-H226 lung): 21.9 µM
- TGI (NCI-H226 lung): 58.5 µM
- GI50 (NCI-H23 lung): 17.4 µM
- TGI (NCI-H23 lung): 36 µM
- GI50 (NCI-H460 lung): 13.4 µM
- TGI (NCI-H460 lung): 29.5 µM
- GI50 (NCI-H522 lung): 22 µM
- TGI (NCI-H522 lung): 52.7 µM
- GI50 (NCI/ADR-RES ovarian): 20.6 µM
- TGI (NCI/ADR-RES ovarian): 67.1 µM
- GI50 (OVCAR-3 ovarian): 17.5 µM
- TGI (OVCAR-3 ovarian): 44.8 µM
- GI50 (OVCAR-4 ovarian): 18 µM
- TGI (OVCAR-4 ovarian): 67.6 µM
- GI50 (OVCAR-5 ovarian): 16.1 µM
- TGI (OVCAR-5 ovarian): 50 µM
- GI50 (OVCAR-8 ovarian): 33.6 µM
- TGI (OVCAR-8 ovarian): > 100 µM
- GI50 (PC-3 prostate): 19.8 µM
- TGI (PC-3 prostate): > 100 µM
- GI50 (RPMI-8226 leukemia): 17.3 µM
- TGI (RPMI-8226 leukemia): 48.5 µM
- GI50 (RXF 393 renal): 35.3 µM
- TGI (RXF 393 renal): > 100 µM
- GI50 (SF-268 CNS): 18.2 µM
- TGI (SF-268 CNS): 56.5 µM
- GI50 (SF-295 CNS): 18.4 µM
- TGI (SF-295 CNS): 55.7 µM
- GI50 (SF-539 CNS): 18 µM
- TGI (SF-539 CNS): 39 µM
- GI50 (SK-MEL-2 melanoma): 51 µM
- TGI (SK-MEL-2 melanoma): > 100 µM
- GI50 (SK-MEL-28 melanoma): 15.5 µM
- TGI (SK-MEL-28 melanoma): 35 µM
- GI50 (SK-MEL-5 melanoma): 12.7 µM
- TGI (SK-MEL-5 melanoma): 28 µM
- GI50 (SK-OV-3 ovarian): 24.5 µM
- TGI (SK-OV-3 ovarian): 98.9 µM
- GI50 (SN12C renal): 19.8 µM
- TGI (SN12C renal): 50.2 µM
- GI50 (SNB-19 CNS): 27.9 µM
- TGI (SNB-19 CNS): 98.9 µM
- GI50 (SNB-75 CNS): 10.9 µM
- TGI (SNB-75 CNS): 30.4 µM
- GI50 (SR leukemia): 11.2 µM
- TGI (SR leukemia): 38.1 µM
- GI50 (SW-620 colon): 27.5 µM
- TGI (SW-620 colon): > 100 µM
- GI50 (T-47D breast): 12.8 µM
- TGI (T-47D breast): 85.8 µM
- GI50 (TK-10 renal): 30.4 µM
- TGI (TK-10 renal): > 100 µM
- GI50 (U251 CNS): 15 µM
- TGI (U251 CNS): 28.3 µM
- GI50 (UACC-257 melanoma): 21.9 µM
- TGI (UACC-257 melanoma): 52.6 µM
- GI50 (UACC-62 melanoma): 13 µM
- TGI (UACC-62 melanoma): 26.2 µM
- GI50 (UO-31 renal): 23.2 µM
- TGI (UO-31 renal): > 100 µM
